Assay results from ChEMBL document CHEMBL4219259, “Molecular Determinants Conferring the Stoichiometric-Dependent Activity of α-Conotoxins at the Human α9α10 Nicotinic Acetylcholine Receptor Subtype” (J Med Chem, 2018).
Peptide text beside a SMILES is read from it.

Key:
[1] = target: T1, Neuronal acetylcholine receptor; alpha9/alpha10 (Homo sapiens, UniProt Q9GZZ6+Q9UGM1); assay: Inhibition of human alpha9/alpha10 nACHR (1:1) expressed in Xenopus laevis oocyte assessed as inhibition of ACh induced channel current measured for 2 to 5 days at -80 mV holding potential by two electrode voltage clamp method
[2] = target: T2, Neuronal acetylcholine receptor; alpha9/alpha10 (Homo sapiens) (UniProt Q9UGM1+Q9GZZ6); assay: Inhibition of human alpha9/alpha10 nACHR (3:2) expressed in Xenopus laevis oocyte assessed as inhibition of ACh induced channel current at 1 uM measured for 2 to 5 days at -80 mV holding potential by two electrode voltage clamp method
[3] = target: T2, Neuronal acetylcholine receptor; alpha9/alpha10 (Homo sapiens); assay: Inhibition of human alpha9/alpha10 nACHR (4:1) expressed in Xenopus laevis oocyte assessed as inhibition of ACh induced channel current at 1 uM measured for 2 to 5 days at -80 mV holding potential by two electrode voltage clamp method
[4] = target: T2, Neuronal acetylcholine receptor; alpha9/alpha10 (Homo sapiens); assay: Inhibition of human alpha9/alpha10 nACHR (2:3) expressed in Xenopus laevis oocyte assessed as inhibition of ACh induced channel current at 1 uM measured for 2 to 5 days at -80 mV holding potential by two electrode voltage clamp method
[5] = target: T2, Neuronal acetylcholine receptor; alpha9/alpha10 (Homo sapiens); assay: Inhibition of human alpha9 N154G mutant/alpha10 nACHR (1:3) expressed in Xenopus laevis oocyte assessed as inhibition of ACh induced channel current at 1 uM measured for 2 to 5 days at -80 mV holding potential by two electrode voltage clamp method
[6] = target: T2, Neuronal acetylcholine receptor; alpha9/alpha10 (Homo sapiens); assay: Inhibition of human alpha9 N154G mutant/alpha10 nACHR (3:1) expressed in Xenopus laevis oocyte assessed as inhibition of ACh induced channel current at 1 uM measured for 2 to 5 days at -80 mV holding potential by two electrode voltage clamp method
[7] = target: T1, Neuronal acetylcholine receptor; alpha9/alpha10; assay: Inhibition of human alpha9/alpha10 nACHR (1:3) expressed in Xenopus laevis oocyte assessed as inhibition of ACh induced channel current measured for 2 to 5 days at -80 mV holding potential by two electrode voltage clamp method
[8] = target: T1, Neuronal acetylcholine receptor; alpha9/alpha10; assay: Inhibition of human alpha9/alpha10 nACHR (3:1) expressed in Xenopus laevis oocyte assessed as inhibition of ACh induced channel current measured for 2 to 5 days at -80 mV holding potential by two electrode voltage clamp method
[9] = target: T3, Neuronal acetylcholine receptor; alpha9/alpha10 (Homo sapiens, UniProt Q9GZZ6+Q9UGM1, N154G); assay: Inhibition of human alpha9 N154G mutant/alpha10 nACHR (1:3) expressed in Xenopus laevis oocyte assessed as inhibition of ACh induced channel current measured for 2 to 5 days at -80 mV holding potential by two electrode voltage clamp method
[10] = target: T3, Neuronal acetylcholine receptor; alpha9/alpha10; assay: Inhibition of human alpha9 N154G mutant/alpha10 nACHR (3:1) expressed in Xenopus laevis oocyte assessed as inhibition of ACh induced channel current measured for 2 to 5 days at -80 mV holding potential by two electrode voltage clamp method
[11] = target: Neuronal acetylcholine receptor; alpha9/alpha10 (Homo sapiens, UniProt Q9GZZ6+Q9UGM1, G154N); assay: Inhibition of human alpha9/alpha10 G154N mutant nACHR (1:3) expressed in Xenopus laevis oocyte assessed as inhibition of ACh induced channel current measured for 2 to 5 days at -80 mV holding potential by two electrode voltage clamp method
Homo sapiens [12] = organism: Homo sapiens; assay: Ratio of IC50 for human alpha9/alpha10 nACHR (1:3) to IC50 for human alpha9 N154G mutant/alpha10 nACHR (1:3)
Homo sapiens [13] = organism: Homo sapiens; assay: Ratio of IC50 for human alpha9/alpha10 nACHR (3:1) to IC50 for human alpha9 N154G mutant/alpha10 nACHR (3:1)

T1 sequence (Q9UGM1 whole entry): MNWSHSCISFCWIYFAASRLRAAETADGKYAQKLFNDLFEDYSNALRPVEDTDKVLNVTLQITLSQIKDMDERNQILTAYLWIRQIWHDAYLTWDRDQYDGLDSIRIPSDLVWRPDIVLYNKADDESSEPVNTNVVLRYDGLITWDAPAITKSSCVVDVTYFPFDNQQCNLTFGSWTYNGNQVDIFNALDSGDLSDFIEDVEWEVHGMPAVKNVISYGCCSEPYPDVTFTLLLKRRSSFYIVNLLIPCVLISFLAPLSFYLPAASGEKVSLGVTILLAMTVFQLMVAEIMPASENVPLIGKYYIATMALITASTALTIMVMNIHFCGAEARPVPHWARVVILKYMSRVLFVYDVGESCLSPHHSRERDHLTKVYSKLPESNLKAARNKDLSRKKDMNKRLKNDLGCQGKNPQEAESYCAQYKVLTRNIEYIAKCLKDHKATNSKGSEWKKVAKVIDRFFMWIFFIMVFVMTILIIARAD
T1 sequence (Q9GZZ6 whole entry): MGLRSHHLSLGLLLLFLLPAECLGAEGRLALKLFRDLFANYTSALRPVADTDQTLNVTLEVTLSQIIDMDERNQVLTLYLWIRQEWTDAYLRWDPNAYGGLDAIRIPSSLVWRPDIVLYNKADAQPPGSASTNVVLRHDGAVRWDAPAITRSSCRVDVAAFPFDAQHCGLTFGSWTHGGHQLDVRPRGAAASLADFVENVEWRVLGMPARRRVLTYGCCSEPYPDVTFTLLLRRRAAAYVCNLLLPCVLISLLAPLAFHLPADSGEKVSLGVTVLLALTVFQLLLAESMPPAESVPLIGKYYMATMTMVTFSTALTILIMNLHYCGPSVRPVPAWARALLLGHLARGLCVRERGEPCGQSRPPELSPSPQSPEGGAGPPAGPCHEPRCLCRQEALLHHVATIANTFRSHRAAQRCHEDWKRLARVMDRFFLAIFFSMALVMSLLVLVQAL
T3 sequence (Q9GZZ6 whole entry, looked up, stated change not applied): as the sequence (Q9GZZ6 whole entry) above
T3 sequence (Q9UGM1 whole entry, looked up, stated change not applied): as the sequence (Q9UGM1 whole entry) above
Neuronal acetylcholine receptor; alpha9/alpha10 (Homo sapiens, UniProt Q9GZZ6+Q9UGM1, G154N), sequence (Q9GZZ6 whole entry, looked up, stated change not applied): as the sequence (Q9GZZ6 whole entry) above
Neuronal acetylcholine receptor; alpha9/alpha10 (Homo sapiens, UniProt Q9GZZ6+Q9UGM1, G154N), sequence (Q9UGM1 whole entry, looked up, stated change not applied): as the sequence (Q9UGM1 whole entry) above

SMILES	IC50 [1]	inhibition [2]	inhibition [3]	inhibition [4]	inhibition [5]	inhibition [6]	IC50 [7]	IC50 [8]	IC50 [9]	IC50 [10]	IC50 [11]	Ratio IC50 (Homo sapiens [12])	Ratio IC50 (Homo sapiens [13])
CC[C@H](C)[C@@H]1NC(=O)[C@H](CCC(=O)O)NC(=O)[C@@H]2CCCN2C(=O)[C@H](Cc2ncc[nH]2)NC(=O)[C@H](CC(=O)O)NC(=O)[C@H](Cc2ccc(O)cc2)NC(=O)[C@H](CC(N)=O)NC(=O)[C@@H]2CSSC[C@H](NC(=O)CN)C(=O)N[C@@H](CSSC[C@@H](C(N)=O)NC1=O)C(=O)N[C@@H](CO)C(=O)N[C@@H](CC(=O)O)C(=O)N1CCC[C@H]1C(=O)N[C@@H](CCCNC(=N)N)C(=O)N2 (HELM PEPTIDE1{G.C.C.S.D.P.R.C.N.Y.D.[O=C([C@H](Cc1ncc[nH]1)N[*:1])[*:2]].P.E.I.C.[am]}$PEPTIDE1,PEPTIDE1,2:R3-8:R3|PEPTIDE1,PEPTIDE1,3:R3-16:R3$$$V2.0)	1 µM	65.8%	65.8%	25.5%	19.5%	21.8%	3.57 µM	0.75 µM	11.3 µM	17 µM	0.75 µM	3	23
CC[C@H](C)[C@@H]1NC(=O)[C@H](CC(N)=O)NC(=O)[C@@H]2CCCN2C(=O)[C@H](Cc2ncc[nH]2)NC(=O)[C@H](CC(=O)O)NC(=O)[C@H](Cc2ccc(O)cc2)NC(=O)[C@H](CC(N)=O)NC(=O)[C@@H]2CSSC[C@H](NC(=O)CN)C(=O)N[C@@H](CSSC[C@@H](C(N)=O)NC1=O)C(=O)N[C@@H](CO)C(=O)N[C@@H](CC(=O)O)C(=O)N1CCC[C@H]1C(=O)N[C@@H](CCCNC(=N)N)C(=O)N2 (HELM PEPTIDE1{G.C.C.S.D.P.R.C.N.Y.D.[O=C([C@H](Cc1ncc[nH]1)N[*:1])[*:2]].P.N.I.C.[am]}$PEPTIDE1,PEPTIDE1,2:R3-8:R3|PEPTIDE1,PEPTIDE1,3:R3-16:R3$$$V2.0)							17.5 µM	10.8 µM	10.2 µM	8.59 µM			
N=C(N)NCCC[C@@H]1NC(=O)[C@H](Cc2ccc(O)cc2)NC(=O)[C@H](CCCNC(=N)N)NC(=O)[C@@H]2CSSC[C@H](NC(=O)CN)C(=O)N[C@@H](CSSC[C@@H](C(N)=O)NC1=O)C(=O)N[C@@H](CO)C(=O)N[C@@H](CC(=O)O)C(=O)N1CCC[C@H]1C(=O)N[C@@H](CCCNC(=N)N)C(=O)N2 (HELM PEPTIDE1{G.C.C.S.D.P.R.C.R.Y.R.C.[am]}$PEPTIDE1,PEPTIDE1,2:R3-8:R3|PEPTIDE1,PEPTIDE1,3:R3-12:R3$$$V2.0)	249 µM												
CC(C)[C@@H]1NC(=O)[C@H](CO)NC(=O)[C@@H]2CSSC[C@H](NC(=O)CN)C(=O)N[C@@H](CSSC[C@@H](C(N)=O)NC(=O)[C@H](CCCCN)NC(=O)[C@H](CC(N)=O)NC(=O)[C@@H]3CCCN3C(=O)[C@H](Cc3ncc[nH]3)NC(=O)[C@H](CC(=O)O)NC1=O)C(=O)N[C@@H](CO)C(=O)N[C@@H](CC(=O)O)C(=O)N1CCC[C@H]1C(=O)N[C@@H](CCCNC(=N)N)C(=O)N2 (HELM PEPTIDE1{G.C.C.S.D.P.R.C.S.V.D.[O=C([C@H](Cc1ncc[nH]1)N[*:1])[*:2]].P.N.K.C.[am]}$PEPTIDE1,PEPTIDE1,2:R3-8:R3|PEPTIDE1,PEPTIDE1,3:R3-16:R3$$$V2.0)							13.2 µM	9.3 µM	13 µM	15.2 µM			
